In US10471139B2, “Toll-like receptor agonists” (The University of Kansas, priority 2013, dated 2019):
Blank lines part the entries; values can stand above or below the compound they belong to.

Tests used:
human PBMCs [1] = test: IFN-α induction in human PBMCs (ELISA); type: cell-based; settings: PBMC
Protocol: (§1) Fresh human peripheral blood mononuclear cells (hPBMC) were isolated from human blood obtained by venipuncture with informed consent and as per institutional guidelines on Ficoll-Hypaque gradients as described elsewhere. Aliquots of PBMCs (10^5 cells in 100 μL/well) were stimulated for 12 h with graded concentrations of test compounds. Supernatants were isolated by centrifugation, and were assayed in triplicates using either high-sensitivity multi-subtype IFN-α ELISA kits (PBL Interferon Source, Piscataway, N.J. and R&D Systems, Inc., Minneapolis, Minn.), or analyte-specific multiplexed cytokine/chemokine bead array assays as reported by us previously.

[2] = system: human natural killer (NK), cytokine-induced killer (CIK) and nominal B lymphocytes; test: Flow-cytometric CD69 upregulation in lymphocytic subsets of whole human blood; type: cell-based
Protocol: Flow-Cytometric Immunostimulation Experiments.
CD69 upregulation was determined by flow cytometry and modified for rapid-throughput. Briefly, heparin-anticoagulated whole blood samples were obtained by venipuncture from healthy human volunteers with informed consent and as per guidelines approved by the University of Kansas Human Subjects Experimentation Committee. Serial dilutions of selected imidazopyridine compounds (and imiquimod, used as a reference compound) were performed using a Bio-Tek Precision 2000 XS liquid handler in sterile 96-well polypropylene plates, to which were added 100 μL aliquots of anticoagulated whole human blood. The plates were incubated at 37° C. for 16.5 h. Negative (endotoxin free water) controls were included in each experiment. Following incubation, fluorochrome-conjugated antibodies (CD3-PE, CD56-APC, CD69-PE-Cy7, 10 μL of each antibody, Becton-Dickinson Biosciences, San Jose, Calif.) were added to each well with a liquid handler, and incubated at 37° C. in the dark for 30 min. […] CD69 activation in the major lymphocytic populations, viz., natural killer lymphocytes (NK cells: CD3^−CD56^+), cytokine-induced killer phenotype (CIK cells: CD3^+CD56^+), nominal B lymphocytes (CD3^−CD56^−), and nominal T lymphocytes (CD3^+CD56^−) were quantified using FlowJo v 7.0 software (Treestar, Ashland, Oreg.). […]

[3] = Metabolic stability in human foreskin fibroblasts (microdialysis, LC-MS/MS); type: in vitro ADME; settings: human, human foreskin fibroblasts (HFFs)
[4] = system: human foreskin fibroblasts (HFFs); test: as above; type: in vitro ADME
[5] = Metabolic stability in peripheral blood mononuclear cells (microdialysis, LC-MS/MS); type: in vitro ADME, human; settings: human, peripheral blood mononuclear cells (PBMCs)
[6] = system: peripheral blood mononuclear cells (PBMCs); test: as above; type: in vitro ADME, human; settings: PBMCs
human TLR8 = target: T1, human TLR8 (Homo sapiens, UniProt Q9NR97); test: Human TLR8 reporter gene assay (NF-κB induction), HEK-Blue-8 cells; type: cell-based
T1 construct: expressed in transfected cells; host or cells: HEK293 (HEK-Blue-8)
T1 sequence (Q9NR97 27-1041): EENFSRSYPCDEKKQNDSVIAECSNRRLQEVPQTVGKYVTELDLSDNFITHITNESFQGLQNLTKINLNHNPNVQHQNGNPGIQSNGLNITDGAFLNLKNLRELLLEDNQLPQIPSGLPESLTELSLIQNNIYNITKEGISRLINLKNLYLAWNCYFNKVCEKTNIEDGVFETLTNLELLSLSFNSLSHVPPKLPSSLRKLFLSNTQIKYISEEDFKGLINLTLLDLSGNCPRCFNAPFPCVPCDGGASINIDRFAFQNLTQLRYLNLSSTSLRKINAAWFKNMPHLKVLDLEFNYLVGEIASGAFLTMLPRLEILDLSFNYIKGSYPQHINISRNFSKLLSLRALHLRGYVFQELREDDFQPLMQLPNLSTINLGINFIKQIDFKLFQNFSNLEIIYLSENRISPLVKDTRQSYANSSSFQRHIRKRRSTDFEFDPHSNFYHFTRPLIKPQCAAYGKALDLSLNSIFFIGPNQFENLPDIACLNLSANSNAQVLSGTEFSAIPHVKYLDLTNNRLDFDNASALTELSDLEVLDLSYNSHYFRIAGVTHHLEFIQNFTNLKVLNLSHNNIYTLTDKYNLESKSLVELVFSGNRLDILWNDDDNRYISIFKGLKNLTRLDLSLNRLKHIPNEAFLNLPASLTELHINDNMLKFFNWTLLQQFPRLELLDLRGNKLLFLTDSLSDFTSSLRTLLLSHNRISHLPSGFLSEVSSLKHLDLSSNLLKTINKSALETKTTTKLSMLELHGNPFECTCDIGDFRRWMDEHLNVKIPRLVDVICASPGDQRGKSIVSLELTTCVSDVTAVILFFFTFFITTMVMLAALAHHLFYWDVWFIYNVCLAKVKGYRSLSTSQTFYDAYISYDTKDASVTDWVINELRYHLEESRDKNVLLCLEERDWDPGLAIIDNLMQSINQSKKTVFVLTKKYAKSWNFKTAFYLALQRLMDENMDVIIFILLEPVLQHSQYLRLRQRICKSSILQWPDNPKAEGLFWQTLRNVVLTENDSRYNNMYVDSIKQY
Description: Human TLR-7/-8 Reporter Gene Assays (NF-κB Induction).
The induction of NF-κB was quantified using HEK-Blue-7 (hTLR7-specific) and HEK-Blue-8 (hTLR8-specific) cells. HEK293 cells stably co-transfected with human TLR7 or human TLR8, MD2, and secreted alkaline phosphatase (sAP), were maintained in HEK-Blue™ Selection medium containing zeocin and normocin. Stable expression of secreted alkaline phosphatase (sAP) under control of NF-κB/AP-1 promoters is inducible by appropriate TLR agonists, and extracellular sAP in the supernatant is proportional to NF-κB induction.
HEK293 cells stably co-transfected with the appropriate hTLR (or NOD) and secreted alkaline phosphatase (sAP) were maintained in HEK-Blue™ Selection medium. Stable expression of secreted alkaline phosphatase (sAP) under control of NF-κB/AP-1 promoters is inducible by appropriate TLR/NOD agonists, and extracellular sAP in the supernatant is proportional to NF-κB induction.

[7] = Chemical stability of the free base (autoxidation); type: physicochemical; settings: rapid formation of 3-ol A5 by autoxidation
Description: A ring-contracted 2-amino-3-alkylindole analogue compound A4, accessed via sequential C-alkylation of commercially available 2-nitrophenylacetonitrile, reduction of the 2-nitro group, and Brønsted acid-promoted, microwave-assisted intramolecular cyclization (Scheme A1).

human PBMCs [8] = test: Proinflammatory cytokine induction in human PBMCs / human blood (bead array); type: cell-based; settings: human PBMCs and whole human blood
Protocol: Immunoassays for Interferon (IFN)-α, and Cytokines.
as §1

half-life [3]: < 1 h
number of major metabolites identified by LC-MS/MS ([4]; FIG. 5B, Table A, cell type not stated): 6
parent detected by LC-MS ([4]; HFFs, at 1 hour): nearly undetectable
half-life [5]: 3 h
time by which parent was depleted [6]: ≤ 8 h
SMILES: CCCCc1nc2c(N)nc(NCc3ccc(CN)cc3)cc2n1Cc1ccccc1 [Compound 19p, N^6-(4-(aminomethyl)benzyl)-1-benzyl-2-butyl-1H-imidazo[4,5-c]pyridine-4,6-diamine]
EC50 (human PBMCs [1]): 300 nM
CD69 expression in natural killer, cytokine-induced killer and B lymphocytic subsets [2]: as active as the reference TLR7 agonist IMDQ

hTLR8 Agonistic Activity (EC50) (human TLR8; human TLR 8-specific reporter gene assays): Unstable
TLR8-agonistic activity of the hydrochloride salt (human TLR8; hydrochloride salt): inactive
SMILES: CCCCC1C(N)=Nc2ccccc21 (stereo not shown) [Compound A4]
stability of the free-base [7]: exceedingly unstable

EC50 (human TLR8; primary screens, read-out: TLR8-agonistic activity EC50): 1130 nM
SMILES: CCCCCn1c(N)nc2c(C)cccc21 [Compound A31a, 4-Methyl-1-pentyl-1H-benzo[d]imidazol-2-amine]
induction of proinflammatory cytokines, IL-12p40 and IFN-γ (human PBMCs [8]): induction
CD69 upregulation in natural killer (NK) lymphocytes [2]: complete absence
